Assay results published in patent US20240180880A1, “METHODS OF USING EHMT2 INHIBITORS IN TREATING OR PREVENTING BLOOD DISORDERS” (Epizyme, Inc., priority 2017, published 2024).
Where two headings read alike, the source gives them in different places.

Tested on: 284 cell lines
Test: cells
Settings: Homo sapiens
Description: A screen of 284 cell lines to assess the antiproliferative effect of EHMT2 inhibition was conducted by treating cell lines in 384-well format with a half-log step dilutions of Compound 205 over 10 concentrations with a maximum concentration of 0.1% v/v DMSO. Cells were plated on Day 0 and treated with compound on Day 1. Culture medium was replaced on day 7 and cells redosed. After 10-day incubation, cells were fixed and stained with nuclear dye. Automated fluorescence microscopy was carried out using a Molecular Devices ImageXpress Micro XL high-content imager, and images were collected with a 4× objective. 16-bit TIFF images were acquired and analyzed with MetaXpress 5.1.0.41 software. Cell proliferation was measured by the fluorescence intensity of the incorporated nuclear dye. Cell count IC50 is the test compound concentration at 50% of maximal response of the untreated control.

CNc1cc(C)nc(Nc2ccc(OC)c(OCCCN3CCCC3)c2)n1 [Compound 205]
IC50 (DU-145, read-out: Cell Count IC50, DU145, Prostate): > 10 µM
IC50 (Daoy, read-out: Cell Count IC50, Daoy, Central Nervous System, Medulloblastoma): 1 to 10 µM
IC50 (Daudi, read-out: Cell Count IC50, Daudi, Hematopoietic, Lymphoma): 1 to 10 µM
IC50 (Detroit 562, read-out: Cell Count IC50, Detroit 562, Head and Neck): 1 to 10 µM
IC50 (DoTc2-4510, read-out: Cell Count IC50, DoTc2 4510, Female GU, Cervix): 1 to 10 µM
IC50 (EFM-19, read-out: Cell Count IC50, EFM-19, Breast): > 10 µM
IC50 (FaDu, read-out: Cell Count IC50, FaDu, Head and Neck): 1 to 10 µM
IC50 (G292, read-out: Cell Count IC50, G-292, clone A141B1, Bone, Osteosarcoma): > 10 µM
IC50 (G-361, read-out: Cell Count IC50, G-361, Skin, Melanoma): 1 to 10 µM
IC50 (G-401, read-out: Cell Count IC50, G-401, Kidney): > 10 µM
IC50 (G-402, read-out: Cell Count IC50, G-402, Kidney): 1 to 10 µM
IC50 (HCT-8, read-out: Cell Count IC50, HCT-8, Colon): > 10 µM
IC50 (HCT-15, read-out: Cell Count IC50, HCT-15, Colon): > 10 µM
IC50 (HCT-116, read-out: Cell Count IC50, HCT-116, Colon): > 10 µM
IC50 (HEC-1-A, read-out: Cell Count IC50, HEC-1-A, Female GU, Uterus): 1 to 10 µM
IC50 (HEL 92.1.7, read-out: Cell Count IC50, HEL-92-1-7, Hematopoietic, Leukemia): > 10 µM
IC50 (HMCB, read-out: Cell Count IC50, HMCB, Skin, Melanoma): > 10 µM
IC50 (HPAF-II, read-out: Cell Count IC50, HPAF-II, Pancreas): 1 to 10 µM
IC50 (HT1197, read-out: Cell Count IC50, HT-1197, Bladder): 1 to 10 µM
IC50 (HT-29, read-out: Cell Count IC50, HT-29, Colon): 1 to 10 µM
IC50 (HT-1080, read-out: Cell Count IC50, HT-1080, Soft & Connective Tissue, Sarcoma): > 10 µM
IC50 (HT-1376, read-out: Cell Count IC50, HT1376, Bladder): > 10 µM
IC50 (HeLa, read-out: Cell Count IC50, HeLa, Female GU, Cervix): > 10 µM
IC50 (HepG2, read-out: Cell Count IC50, HepG2, Liver): > 10 µM
IC50 (Hs 294T, read-out: Cell Count IC50, Hs 294T, Skin, Melanoma): 1 to 10 µM
IC50 (Hs 683, read-out: Cell Count IC50, Hs 683, Central Nervous System, Glioma): 1 to 10 µM
IC50 (Hs 695T, read-out: Cell Count IC50, Hs 695T, Skin, Melanoma): 1 to 10 µM
IC50 (Hs746T, read-out: Cell Count IC50, HS 746T, Stomach): > 10 µM
IC50 (Hs-578T, read-out: Cell Count IC50, Hs 578T, Breast): > 10 µM
IC50 (HuCCT-1, read-out: Cell Count IC50, HuCCT1, Liver): 1 to 10 µM
IC50 (HuP-T4, read-out: Cell Count IC50, HuP-T4, Pancreas): 1 to 10 µM
IC50 (HuTu80, read-out: Cell Count IC50, HuTu 80, Duodenum): 1 to 10 µM
IC50 (JEG-3, read-out: Cell Count IC50, JEG-3, Placenta): > 10 µM
IC50 (JIYOYE, read-out: Cell Count IC50, Jiyoye, Hematopoietic, Lymphoma): > 10 µM
IC50 (JeKo-1, read-out: Cell Count IC50, JeKo-1, Hematopoietic, Lymphoma): 1 to 10 µM
IC50 (Jurkat, read-out: Cell Count IC50, Jurkat, Hematopoietic, Leukemia): 1 to 10 µM
IC50 (K562, read-out: Cell Count IC50, K562, Hematopoietic, Leukemia): 1 to 10 µM
IC50 (KATO III, read-out: Cell Count IC50, KATO III, Stomach): 1 to 10 µM
IC50 (KU812, read-out: Cell Count IC50, KU812, Hematopoietic, Leukemia): > 10 µM
IC50 (LNCaP, read-out: Cell Count IC50, LNCaP, Prostate): 0.1 to 1 µM
IC50 (LS174T, read-out: Cell Count IC50, LS-174T, Colon): 1 to 10 µM
IC50 (LS-123, read-out: Cell Count IC50, LS123, Colon): 1 to 10 µM
IC50 (LS-411N, read-out: Cell Count IC50, LS411N, Colon): 1 to 10 µM
IC50 (LS-513, read-out: Cell Count IC50, LS513, Colon): 1 to 10 µM
IC50 (LS-1034, read-out: Cell Count IC50, LS1034, Colon): > 10 µM
IC50 (M059J, read-out: Cell Count IC50, M059J, Central Nervous System, Glioma): > 10 µM
IC50 (MC-IXC, read-out: Cell Count IC50, MC-IXC, Central Nervous System, Neuroblastoma): > 10 µM
IC50 (MCF7, read-out: Cell Count IC50, MCF7, Breast): > 10 µM
IC50 (MDA-MB-231, read-out: Cell Count IC50, MDA MB 231, Breast): 1 to 10 µM
IC50 (MDA-MB-415, read-out: Cell Count IC50, MDA-MB-415, Breast): > 10 µM
IC50 (MDA-MB-436, read-out: Cell Count IC50, MDA-MB-436, Breast): > 10 µM
IC50 (MDA-MB-453, read-out: Cell Count IC50, MDA MB 453, Breast): 1 to 10 µM
IC50 (MDA-MB-468, read-out: Cell Count IC50, MDA MB 468, Breast): 1 to 10 µM
IC50 (ME-180, read-out: Cell Count IC50, ME-180, Female GU, Cervix): > 10 µM
IC50 (MEG-01, read-out: Cell Count IC50, MEG01, Hematopoietic, Leukemia): 1 to 10 µM
IC50 (MES-SA, read-out: Cell Count IC50, MES-SA, Soft & Connective Tissue, Sarcoma): 1 to 10 µM
IC50 (MG-63, read-out: Cell Count IC50, MG-63, Bone, Osteosarcoma): 1 to 10 µM
IC50 (MHH-PREB-1, read-out: Cell Count IC50, MHH-PREB-1, Hematopoietic, Leukemia): 1 to 10 µM
IC50 (MIA PaCa-2, read-out: Cell Count IC50, Mia PaCa-2, Pancreas): 1 to 10 µM
IC50 (MOLT-3, read-out: Cell Count IC50, MOLT-3, Hematopoietic, Leukemia): 1 to 10 µM
IC50 (MOLT-16, read-out: Cell Count IC50, MOLT-16, Hematopoietic, Leukemia): 1 to 10 µM
IC50 (MV4-11, read-out: Cell Count IC50, MV-4-11, Hematopoietic, Leukemia): 0.1 to 1 µM
IC50 (Malme-3M, read-out: Cell Count IC50, MALME3M, Skin, Melanoma): > 10 µM
IC50 (MeWo, read-out: Cell Count IC50, MeWo, Skin, Melanoma): 1 to 10 µM
IC50 (NALM-6, read-out: Cell Count IC50, NALM-6, Hematopoietic, Leukemia): 1 to 10 µM
IC50 (NCI-H69, read-out: Cell Count IC50, NCI-H69, Lung, SCLC): 0.1 to 1 µM
IC50 (NCI-H292, read-out: Cell Count IC50, NCI-H292, Lung, NSCLC): > 10 µM
IC50 (NCI-H295R, read-out: Cell Count IC50, NCI-H295R, Endocrine, Adrenal gland): > 10 µM
IC50 (NCI-H441, read-out: Cell Count IC50, NCIH441, Lung, NSCLC): > 10 µM
IC50 (NCI-H446, read-out: Cell Count IC50, NCIH446, Lung, SCLC): 1 to 10 µM
IC50 (NCI-H460, read-out: Cell Count IC50, NCI-H460, Lung, NSCLC): > 10 µM
